According to patent US5276023A, “19-nor-steroid esters” (Roussel Uclaf, priority 1989, dated 1994):

Assay: solubility in water
Type: physicochemical

solubility: > 250 mg/mL
Compound: CC#C[C@]1(OC(=O)CCC(=O)O)CC[C@H]2[C@@H]3CCC4=CC(=O)CCC4=C3[C@@H](c3ccc(N(C)C(C)C)cc3)C[C@@]21C [Example 18, Sodium and 11β-[4(N-methyl-isopropylamino)-phenyl]-17α-(1-propynyl)-Δ^4,9-estradien-3-one-17β-yl succinate]
